Data published in patent publication US10517889B2, “Modulators of SMAD7 expression” (Ionis Pharmaceuticals, Inc., priority 2017, dated 2019).
Several values for one entry are separate records, joined by “and”; a condition that tells them apart may be missing. Equal values may be shown once. Strand notation (5' to 3'): a small letter for the sugar, then the base; units joined by * are phosphorothioate-linked, units joined directly phosphodiester-linked; [ ] holds rarer units or linkages, { } end groups; capitals alone tell only the bases. e = 2'-O-(2-methoxyethyl) (MOE); [5mC] = 5-methylcytosine; d = 2'-deoxy (DNA)

Key:
human SMAD7 mRNA [1] = assay: Antisense inhibition of human SMAD7 mRNA expression in Hep3B cells by 5-10-5 MOE gapmers, single concentration, electroporation, RT-PCR (Example 1, Study 1 and 2); format: cell-based
Summary of the method: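 Readout is percent SMAD7 mRNA inhibition versus untreated cells, measured by qRT-PCR (RTS5062) and corrected for total RNA by RIBOGREEN. Oligonucleotide, 5,000 nM or 15,000 nM, was delivered by electroporation into Hep3B cells at 20,000 per well. RNA was collected about 24 h later.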

human SMAD7 mRNA [2] = assay: Dose-dependent inhibition of human SMAD7 mRNA expression in Hep3B cells (Example 3, Study 1 and 2); format: cell-based; details: electroporation; for IC50: Study 1 (312.5-20000 nM); for % inhibition of SMAD7 mRNA expression: approximately 16 hours
Summary of the method: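 Hep3B cells, 20,000 per well, electroporated with antisense oligonucleotide at 0.31, 1.25, 5.00 or 20.00 μM (first series) or 0.74, 2.22, 6.67 or 20.00 μM (second series). After ~16 h, SMAD7 mRNA measured by RT-qPCR (RTS5062), normalised to RIBOGREEN total RNA. Percent inhibition vs untreated cells; IC50 derived.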

[3] = Study 2, electroporation with 15,000 nM antisense oligonucleotide, 5-10-5 MOE gapmers targeting SEQ ID NO: 1 and 2
[4] = electroporation with 15,000 nM antisense oligonucleotide (Study 2), 5-10-5 MOE gapmers targeting SEQ ID NO: 1 and 2
[5] = 312.5 nM, Study 1, relative to untreated control cells
[6] = electroporation, 15,000 nM, approximately 24 hours, relative to untreated control cells, gapmers targeting SEQ ID NO: 1 and 2
[7] = electroporation, 15,000 nM antisense oligonucleotide (Study 2), 5-10-5 MOE gapmers targeting SEQ ID NO: 1 and 2

Row | Substance | % inhibition of SMAD7 mRNA expression (human SMAD7 mRNA [1]; [3]) | IC50 (human SMAD7 mRNA [2]) | % inhibition of SMAD7 mRNA expression (human SMAD7 mRNA [1]; [4]) | % inhibition of SMAD7 mRNA expression (human SMAD7 mRNA [2]; [5]) | % inhibition of SMAD7 mRNA expression (human SMAD7 mRNA [2]; 1250.0 nM, Study 1) | % inhibition of SMAD7 mRNA expression (human SMAD7 mRNA [2]; 5000.0 nM, Study 1) | % inhibition of SMAD7 mRNA expression (human SMAD7 mRNA [2]; 20000.0 nM, Study 1) | % inhibition of SMAD7 mRNA expression (human SMAD7 mRNA [1]; [6]) | % Inhibition of SMAD7 mRNA (human SMAD7 mRNA [1]; [4]) | % inhibition of SMAD7 mRNA expression (human SMAD7 mRNA [1]; [7]) | % Inhibition (human SMAD7 mRNA [1]; [3]) | % inhibition of SMAD7 mRNA expression (human SMAD7 mRNA [1]; electroporation, 5,000 nM, approximately 24 hours, relative to untreated control cells, gapmers targeting SEQ ID NO: 1 and 2)
1 | 771636 (antisense e[5mC]*e[5mC]*eT*eT*eG*dG*dG*dT*dT*dA*dT*dG*dA*d[5mC]*dG*eG*eA*e[5mC]*e[5mC]*eA) [compound 771636] | 0% | > 20 µM and 16 µM |  |  |  |  |  |  |  |  |  | 
2 | 771641 (antisense eA*eG*eT*eT*eA*dG*dG*dT*dG*dT*d[5mC]*dA*dG*d[5mC]*d[5mC]*eT*eA*eG*eG*eA) [compound 771641] |  | > 20 µM | 71% | 3% | 16% | 24% | 50% |  |  |  |  | 
3 | 771661 (antisense eA*eA*eT*eG*e[5mC]*dT*dT*d[5mC]*dT*d[5mC]*dT*dT*dG*dT*dT*e[5mC]*eA*eT*eT*eT) [compound 771661] |  | > 20 µM |  | 0% | 0% | 6% | 28% | 69% |  |  |  | 
4 | 771663 (antisense eT*eT*e[5mC]*e[5mC]*eA*dA*dT*dG*dA*dG*dA*dA*dT*dG*d[5mC]*eT*eT*e[5mC]*eT*e[5mC]) [compound 771663] | 56% | 11 µM |  | 10% | 24% | 43% | 56% |  |  |  |  | 
5 | 771670 (antisense eA*eG*eT*e[5mC]*e[5mC]*dT*dT*dT*d[5mC]*dT*d[5mC]*dT*d[5mC]*dT*d[5mC]*eA*eA*eA*eG*e[5mC]) [compound 771670] | 46% | > 20 µM |  | 0% | 0% | 21% | 47% |  |  |  |  | 
6 | 771671 (antisense eT*e[5mC]*eA*eG*eG*dA*dG*dT*d[5mC]*d[5mC]*dT*dT*dT*d[5mC]*dT*e[5mC]*eT*e[5mC]*eT*e[5mC]) [compound 771671] | 69% | > 20 µM |  | 0% | 9% | 27% | 49% |  |  |  |  | 
7 | 771704 (antisense e[5mC]*eA*eG*eG*eA*dG*dG*dG*dT*dA*dT*dG*d[5mC]*dA*d[5mC]*eA*e[5mC]*eT*e[5mC]*eT) [compound 771704] |  | > 20 µM |  | 14% | 19% | 30% | 54% |  | 55% | 32% |  | 
8 | 771705 (antisense eA*eA*eT*eG*e[5mC]*d[5mC]*d[5mC]*dT*dT*dT*dG*dA*dG*dT*dT*eT*e[5mC]*e[5mC]*e[5mC]*e[5mC]) [compound 771705] |  |  |  | 0% | 0% | 0% | 9% |  |  | 52% |  | 
9 | 771711 (antisense e[5mC]*eG*e[5mC]*eA*e[5mC]*dT*dT*d[5mC]*dA*d[5mC]*dA*dG*dT*dT*d[5mC]*eA*e[5mC]*eA*eG*eG) [compound 771711] |  | 18 µM |  | 17% | 25% | 27% | 59% |  |  |  | 57% | 
10 | 771715 (antisense eA*eG*eT*e[5mC]*eT*d[5mC]*d[5mC]*dG*dA*dG*dT*dT*dA*dT*d[5mC]*e[5mC]*e[5mC]*e[5mC]*eA*eT) [compound 771715] |  | 17 µM |  | 7% | 18% | 42% | 49% |  |  |  | 67% | 68%
11 | 771717 (antisense eT*e[5mC]*e[5mC]*e[5mC]*eA*dT*d[5mC]*dT*dA*dT*d[5mC]*dG*dA*dA*dT*e[5mC]*eA*e[5mC]*e[5mC]*e[5mC]) [compound 771717] |  | > 20 µM |  | 2% | 0% | 0% | 30% | 57% |  |  |  | 
12 | 771732 (antisense eG*eT*e[5mC]*eA*eT*dG*dT*dG*dA*dA*d[5mC]*dA*d[5mC]*dT*d[5mC]*eT*eT*eT*e[5mC]*eA) [compound 771732] |  | 15 µM |  | 35% | 24% | 39% | 58% |  |  |  | 36% | 
13 | 771733 (antisense eT*eG*eA*e[5mC]*eA*dG*d[5mC]*d[5mC]*dA*d[5mC]*dA*dA*dG*dT*d[5mC]*eA*e[5mC]*eA*eA*e[5mC]) [compound 771733] |  | 16 µM |  | 0% | 0% | 26% | 61% | 75% |  |  |  | 
14 | 771734 (antisense e[5mC]*eT*e[5mC]*eA*eA*dA*d[5mC]*d[5mC]*dT*dT*dT*d[5mC]*dA*dG*dA*e[5mC]*e[5mC]*eA*eT*e[5mC]) [compound 771734] |  | > 20 µM |  | 0% | 0% | 30% | 53% |  |  |  | 64% | 
15 | 771737 (antisense eT*e[5mC]*eA*eA*eA*dT*dG*dA*dA*d[5mC]*d[5mC]*d[5mC]*dT*dG*dG*eT*eT*eA*eT*eA) [compound 771737] |  |  |  | 0% | 2% | 0% | 16% |  |  | 57% |  | 
16 | 771742 (antisense eA*eG*eA*e[5mC]*eA*dG*dA*dT*d[5mC]*dT*d[5mC]*dT*dG*dA*dA*eG*eT*e[5mC]*eA*eG) [compound 771742] |  | > 20 µM |  | 0% | 0% | 0% | 23% |  |  |  | 44% | 
17 | 771762 (antisense eG*eT*e[5mC]*eA*e[5mC]*d[5mC]*dA*d[5mC]*d[5mC]*dG*dA*dT*dG*d[5mC]*dA*eT*e[5mC]*e[5mC]*eA*eA) [compound 771762] |  |  |  | 0% | 0% | 38% | 67% |  |  | 72% |  | 
18 | 771769 (antisense eG*eG*e[5mC]*eT*eG*dG*dG*dA*dA*dT*d[5mC]*dA*dG*dA*dA*e[5mC]*eT*eT*eG*eG) [compound 771769] |  | > 20 µM |  | 10% | 0% | 3% | 53% |  |  | 71% |  | 
19 | 771770 (antisense e[5mC]*eT*eG*eT*eT*dG*dG*d[5mC]*dA*dG*dT*dG*d[5mC]*dT*d[5mC]*e[5mC]*e[5mC]*eA*e[5mC]*e[5mC]) [compound 771770] |  | > 20 µM |  | 0% | 11% | 27% | 51% |  |  | 61% |  | 
